Measurements as given in PMC5075789, “Orphan GPR110 (ADGRF1) targeted by N-docosahexaenoylethanolamine in development of neurons and cognitive function” (Nature Communications, 2016).
Blank lines part the entries; values can stand above or below the molecule they belong to.

Columns and labels:
[1] = molecular target: T1, hGPR110-HA (human GPR110, ADGRF1) (Homo sapiens, UniProt Q5T601); assay: streptavidin pull-down and western blot; assay type: binding; details: 1 μM G1, HEK293 lysate
T1 construct: full-length ORF, 910 residues, C-terminal HA tag kept, expressed in HEK293 (CRE-luc2P HEK293 for cAMP); immunopurified with anti-HA for MST; glycosylated, about 130 and 110 kD
T1 sequence (Q5T601 20-566): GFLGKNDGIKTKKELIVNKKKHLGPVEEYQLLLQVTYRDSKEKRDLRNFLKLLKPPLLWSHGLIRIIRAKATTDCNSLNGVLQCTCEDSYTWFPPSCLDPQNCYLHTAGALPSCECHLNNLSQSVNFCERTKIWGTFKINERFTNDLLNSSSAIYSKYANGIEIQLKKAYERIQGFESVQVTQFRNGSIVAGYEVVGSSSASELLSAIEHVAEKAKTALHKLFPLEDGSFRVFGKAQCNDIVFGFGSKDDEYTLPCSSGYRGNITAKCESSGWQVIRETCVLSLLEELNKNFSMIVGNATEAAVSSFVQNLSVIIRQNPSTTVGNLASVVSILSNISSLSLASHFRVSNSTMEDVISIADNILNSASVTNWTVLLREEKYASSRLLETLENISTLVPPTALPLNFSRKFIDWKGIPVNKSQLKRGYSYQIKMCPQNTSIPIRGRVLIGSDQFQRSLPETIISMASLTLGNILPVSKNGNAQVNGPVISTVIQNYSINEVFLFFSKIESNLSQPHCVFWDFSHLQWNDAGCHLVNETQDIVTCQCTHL
T1 sequence (Q5T601 567-910): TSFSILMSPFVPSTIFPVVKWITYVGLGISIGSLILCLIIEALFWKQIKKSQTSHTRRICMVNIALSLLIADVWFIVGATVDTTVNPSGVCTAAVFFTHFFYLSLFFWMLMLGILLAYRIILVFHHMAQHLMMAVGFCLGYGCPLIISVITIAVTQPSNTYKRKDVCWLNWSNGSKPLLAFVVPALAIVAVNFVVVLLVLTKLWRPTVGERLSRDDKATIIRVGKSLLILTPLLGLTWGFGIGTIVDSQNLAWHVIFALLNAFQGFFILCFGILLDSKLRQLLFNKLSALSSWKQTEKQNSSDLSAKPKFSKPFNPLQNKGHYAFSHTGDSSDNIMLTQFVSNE

[2] = molecular target: T2, mGPR110-HA (mouse GPR110) (Mus musculus, UniProt Q8VEC3); assay: streptavidin pull-down and western blot; assay type: binding; details: 1 μM G1, HEK293 lysate, PBS with 0.5% Triton X-100
T2 construct: gene Adgrf1; full-length ORF, C-terminal HA tag kept, expressed in HEK293; about 100 kD main band
T2 sequence (Q8VEC3 21-564): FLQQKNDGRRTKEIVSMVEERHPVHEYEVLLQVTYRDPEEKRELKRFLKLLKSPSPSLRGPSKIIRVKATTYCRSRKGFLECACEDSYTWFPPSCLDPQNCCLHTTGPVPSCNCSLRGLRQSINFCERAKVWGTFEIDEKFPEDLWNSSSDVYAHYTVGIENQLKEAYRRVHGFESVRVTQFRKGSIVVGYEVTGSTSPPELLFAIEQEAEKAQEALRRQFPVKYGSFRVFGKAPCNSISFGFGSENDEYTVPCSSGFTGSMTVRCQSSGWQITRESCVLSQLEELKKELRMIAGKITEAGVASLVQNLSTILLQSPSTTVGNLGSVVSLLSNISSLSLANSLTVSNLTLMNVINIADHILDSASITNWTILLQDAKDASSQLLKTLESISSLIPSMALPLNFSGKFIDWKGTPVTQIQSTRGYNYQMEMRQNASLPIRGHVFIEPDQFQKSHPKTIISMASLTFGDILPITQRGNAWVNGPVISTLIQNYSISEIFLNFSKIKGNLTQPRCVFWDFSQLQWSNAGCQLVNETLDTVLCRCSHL
T2 sequence (Q8VEC3 565-908): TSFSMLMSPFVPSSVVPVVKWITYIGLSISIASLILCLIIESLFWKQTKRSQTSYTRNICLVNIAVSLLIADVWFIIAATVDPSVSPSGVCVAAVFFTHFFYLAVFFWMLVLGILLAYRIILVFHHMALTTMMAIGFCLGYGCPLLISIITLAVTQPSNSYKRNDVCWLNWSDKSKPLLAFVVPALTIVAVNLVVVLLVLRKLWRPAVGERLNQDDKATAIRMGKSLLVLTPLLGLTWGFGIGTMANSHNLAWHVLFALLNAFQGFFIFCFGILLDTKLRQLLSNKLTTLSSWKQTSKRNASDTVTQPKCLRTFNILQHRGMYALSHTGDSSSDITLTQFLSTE

[3] = molecular target: T1, hGPR110-HA (human GPR110, ADGRF1); assay: microscale thermophoresis; details: read-out: apparent Kd
Excerpt: microscale thermophoresis on hGPR110-HA (human GPR110, ADGRF1) | immunopurified hGPR110 and bodipy-synaptamide, a fluorescent synaptamide analogue, indicated apparent Kd

[4] = molecular target: T2, mGPR110-HA (mouse GPR110); assay: in-cell cross-linking (DSS), streptavidin pull-down, western blot; assay type: cell-based; details: 1 μM G1*, live HEK293 cells, 25 °C; cross-linked by 1 mM DSS

Structure (SMILES): CC/C=C\C/C=C\C/C=C\C/C=C\C/C=C\C/C=C\CCC(=O)NCCNC(=O)CCCC[C@@H]1SC[C@@H]2NC(=O)N[C@@H]21 [G1, (4Z,7Z,10Z,13Z,16Z,19Z)-N-(2-(5-((3aS,4S,6aR)-2-oxohexahydro-1H-thieno(3,4-d)imidazol-4-yl)pentanamido)ethyl)docosa-4,7,10,13,16,19-hexaenamide]
- streptavidin pull-down and western blot [1]: hGPR110 showed G1 binding which was displaced by synaptamide
- streptavidin pull-down and western blot [2]: confirming binding of G1 to the expressed mGPR110-HA

- Kd [3]: ~20 nM
Structure (SMILES): CC/C=C\C/C=C\C/C=C\C/C=C\C/C=C\C/C=C\CCC(=O)NCCNC(=O)CCCCC1=C2C(C)=CC(C)=[N+]2[B-](F)(F)n2c(C)cc(C)c21 [bodipy-synaptamide, 10-(5-((2-((4Z,7Z,10Z,13Z,16Z,19Z)-docosa-4,7,10,13,16,19-hexaenamido)ethyl)amino)-5-oxopentyl)-5,5-difluoro-1,3,7,9-tetramethyl-5H-dipyrrolo(1,2-c:2',1'-f)(1,3,2)diazaborinin-4-ium-5-uide]

Structure (SMILES): CC/C=C\C/C=C\C/C=C\C/C=C\C/C=C\C/C=C\CCC(=O)NCCCC(CCCN)NC(=O)CCCC[C@@H]1SC[C@@H]2NC(=O)N[C@@H]21 (stereo partly drawn) [G1*, (4Z,7Z,10Z,13Z,16Z,19Z)-N-(7-amino-4-(5-((3aS,4S,6aR)-2-oxohexahydro-1H-thieno(3,4-d)imidazol-4-yl)pentanamido)heptyl)docosa-4,7,10,13,16,19-hexaenamide]
- in-cell cross-linking (DSS), streptavidin pull-down, western blot [4]: confirming G1* binding to GPR110-HA in live HEK cells
